Test results reported in publication PMC2834880 (International journal of biological macromolecules, 2010).
Entries after “also recorded” stand apart in the source; their conditions may differ. Read-outs that look alike come from different tables or passages of the source. Where no end group is shown, it is not given here.

Experiments:
[1] = target: purified F1 and membrane bound F1Fo E. coli ATP synthase (Escherichia coli, UniProt P0ABB4); test: biochemical
[2] = tested on: wild-type E. coli strain pBWU13.4/DK; type: cell-based, Escherichia coli
[3] = tested on: E. coli strain pBWU13.4/DK8; type: cell-based, Escherichia coli
[4] = succinate plates, limiting glucose, or LB media

Sequence of purified F1 and membrane bound F1Fo E. coli ATP synthase (P0ABB4 whole entry, looked up): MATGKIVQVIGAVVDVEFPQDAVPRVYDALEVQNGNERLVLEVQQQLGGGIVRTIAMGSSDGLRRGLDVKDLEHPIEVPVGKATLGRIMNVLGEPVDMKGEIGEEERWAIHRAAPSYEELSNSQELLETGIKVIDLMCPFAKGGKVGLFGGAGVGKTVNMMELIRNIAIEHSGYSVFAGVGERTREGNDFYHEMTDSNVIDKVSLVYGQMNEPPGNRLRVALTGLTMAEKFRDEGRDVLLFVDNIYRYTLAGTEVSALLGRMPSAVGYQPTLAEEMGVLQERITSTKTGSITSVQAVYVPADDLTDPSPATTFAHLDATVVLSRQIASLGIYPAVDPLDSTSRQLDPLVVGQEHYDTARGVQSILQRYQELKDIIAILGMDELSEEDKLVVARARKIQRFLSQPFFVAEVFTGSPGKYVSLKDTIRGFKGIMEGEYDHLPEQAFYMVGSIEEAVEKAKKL

Compound | ATPase inhibition (%) [1] [%] | growth of E. coli in presence of peptide [2] | Growth yield on limiting glucose (%) [3] [%] | also measured
Magainin II | 20 | did not affect growth | – | maximal inhibition of ATPase activity [1]: ~ 20%
AIGSILGALAKGLPTLISWIKNR [MRP] | – | – | – | IC50 [1]: ~4.77 µM
CC[C@H](C)[C@H](NC(=O)CN)C(=O)NCC(=O)N[C@@H](C)C(=O)N[C@H](C(=O)N[C@@H](CC(C)C)C(=O)N[C@@H](CCCCN)C(=O)N[C@H](C(=O)N[C@@H](CC(C)C)C(=O)N[C@H](C(=O)N[C@H](C(=O)NCC(=O)N[C@@H](CC(C)C)C(=O)N1CCC[C@H]1C(=O)N[C@@H](C)C(=O)N[C@@H](CC(C)C)C(=O)N[C@H](C(=O)N[C@@H](CO)C(=O)N[C@@H](Cc1c[nH]c2ccccc12)C(=O)N[C@H](C(=O)N[C@@H](CCCCN)C(=O)N[C@@H](CCCNC(=N)N)C(=O)N[C@@H](CCCCN)C(=O)N[C@@H](CCCNC(=N)N)C(=O)N[C@@H](CCC(N)=O)C(=O)N[C@@H](CCC(N)=O)C(N)=O)[C@@H](C)CC)[C@@H](C)CC)[C@@H](C)O)[C@@H](C)O)C(C)C)C(C)C [Melittin-NH2, reference compound] | – | – | – | IC50 [1]: ~4.68 µM
Aurein 2.3: amphibian antimicrobial peptide, Litoria aurea, 16 residues (GLFDIVKKVVGAIGSL-NH2) | – | – | 24 | growth of E. coli in presence of peptide [2, 4]: no growth; also recorded: abrogated growth
Ascaphin-8 | 59 | no growth; also recorded: abrogated growth | – | residual ATPase activity at maximal inhibition [1]: ~ 41%
Caerin 1.8: amphibian antimicrobial peptide, Litoria chloris, 24 residues (GLFKVLGSVAKHLLPHVVPVIAEK) | – | – | 99 | growth of E. coli in presence of peptide ([2]; succinate plates, limiting glucose, or LB media, listed as carein 1.8): did not affect growth
XT-7: amphibian antimicrobial peptide, Xenopus tropicalis, 18 residues (GLLGPLLKIAAKVGSNLL) | – | – | 89 | growth of E. coli in presence of peptide [2, 4]: did not affect growth
Citropin 1.1 | 57 | no growth; also recorded: abrogated growth | – | residual ATPase activity at maximal inhibition [1]: ~ 43%
Aurein 2.2: amphibian antimicrobial peptide, Litoria aurea, 16 residues (GLFDIVKKVVGALGSL-NH2) | – | – | 12 | more inhibition of ATPase than aurein 2.3 ([1]; Leu-13 (aurein 2.2) instead of Ile-13 (aurein 2.3)): ~ 40%; growth of E. coli in presence of peptide [2, 4]: no growth; also recorded: abrogated growth
Caerin 1.9 | 52 | – | – | maximal inhibition of ATPase activity [1]: ~ 52%
Dermaseptin | 26 | no growth; also recorded: abrogated growth | – | residual ATPase activity at maximal inhibition [1]: ~ 74%
